According to US9994551B2, “Pyridazine derivatives as RORc modulators” (Genentech, Inc., priority 2015, dated 2018):

Target: T1, RORc ligand binding domain (Homo sapiens, UniProt P51449)
T1 construct: host or cells: E. coli
T1 sequence (P51449 269-508 limits assumed): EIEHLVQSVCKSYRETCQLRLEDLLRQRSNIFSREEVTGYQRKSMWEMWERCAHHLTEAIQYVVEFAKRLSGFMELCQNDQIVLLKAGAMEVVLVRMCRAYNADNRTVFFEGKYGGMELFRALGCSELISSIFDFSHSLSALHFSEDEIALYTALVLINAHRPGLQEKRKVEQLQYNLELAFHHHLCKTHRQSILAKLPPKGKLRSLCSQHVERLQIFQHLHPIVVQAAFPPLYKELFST
Assay: In vitro RORc ligand binding assay (25-[3H]hydroxycholesterol displacement, filter binding)
Protocol: This assay was used to determine a compound's potency in inhibiting activity of RORc by determining, Kiapp, IC50, or percent inhibition values.
On day of the assay, 100 uL of 0.05% CHAPS (in deionized H2O) was added to all wells of the GFB Unifilter plate and allowed soak for 1 h. A wash buffer of 50 mM HEPES (pH 7.4), 150 mM NaCl, and 5 mM MgCl2 was prepared to wash the filter plate. To prepare an assay buffer, BSA was added to the wash buffer to reach 0.01% and DTT was added to reach 1 mM.
The 20× compound stocks were diluted in DMSO with Assay Buffer 4-fold to reach 5× the final test concentration in 25% DMSO (10 uL compound+30 uL Assay Buffer). Solutions were mixed by aspiration several times with a pipette set on 50 uL volume. For the assay, 10 uL of 5× compound stock solutions in 25% DMSO were added to the assay plate in duplicate.
For two point screening, 10 mM stock compound solutions were diluted in DMSO to obtain 200 uM (20× the high test concentration) and then diluted 10-fold further to reach 20 uM (20× the low test concentration). The 20× stocks were diluted 4-fold with Assay Buffer (10 uL compound+30 uL Assay Buffer) to reach 5× the test concentrations (50 uM and 5 uM) and 10 uL were added to two assay plates for the duplicate wells. With each concentration tested on 2 plates, each set of 80 compounds used 4 assay plates (1 uM and 10 uM, with n=2).
For 25-hydroxycholesterol in 25% DMSO/75% Assay Buffer; 10 uL per well was used for NSB samples. Wells for Total Binding and No Receptor sample determination contained 10 uL of 25% DMSO/75% Assay Buffer per well.
Add 20 uL to all wells to reach 6 nM final concentration in the assay.
Stock receptor solution was diluted in assay buffer to obtain 1.5 ug/mL in Assay Buffer. 20 uL was added to all wells. For No Receptor samples, 20 uL Assay Buffer was substituted for receptor solution.
Assay plates were 96-well polypropylene V-bottom plates. 10 uL of 5× compound in 25% DMSO/75% Assay Buffer was added to Test wells. 10 uL of 25% DMSO/75% Assay Buffer was added to Total Binding or No Receptor wells. 10 uL of 5 uM 25-hydroxycholesterol in 25% DMSO/75% Assay Buffer was added to NSB wells. […] 20 uL of 1.5 ug/mL RORc receptor was added to wells (or 40 uL Assay Buffer to No R wells). Following addition to the wells, the plates were incubated 3 h at 25° C.
Using a Packard Filtermate Harvester, the filter plate were washed 4 times following transfer of the incubated samples. Plates were dry-filtered completely (2 h at 50° C. or overnight at room temperature). 50 uL Microscint 0 was added to all wells and read on Topcount protocol Inverted.

Structure (SMILES) | IC50
CCOC(=O)c1cn2c([C@@]34CC[C@@H](c5cc(-c6c(F)cccc6F)nnc53)C4(C)C)cccc2n1 [Compound 108, ethyl 5-((5R,8S)-3-(2,6-difluorophenyl)-9,9-dimethyl-5,6,7,8-tetrahydro-5,8-methanocinnolin-8-yl)imidazo[1,2-a]pyridine-2-carboxylate] | 96 nM
Cc1coc(N2CCO[C@H]([C@@]34CC[C@@H](c5cc(-c6c(F)cccc6F)nnc53)C4(C)C)C2)n1 [Compound 134, 2-[5-(2,6-difluorophenyl)-11,11-dimethyl-3,4-diazatricyclo[6.2.1.02,7]undeca-2,4,6-trien-1-yl]-4-(4-methyloxazol-2-yl)morpholine] | 4 nM
CC1(C)[C@H]2CC[C@]1([C@H]1CN(C(=O)C(O)CO)CCO1)c1nnc(-c3c(F)cccc3F)cc12 (stereo partly drawn) [Compound 76, 1-((S)-2-((5R,8R)-3-(2,6-difluorophenyl)-9,9-dimethyl-5,6,7,8-tetrahydro-5,8-methanocinnolin-8-yl)morpholino)-2,3-dihydroxypropan-1-one] | 277 nM
CC1(C)[C@H]2CC[C@]1(Oc1ccccn1)c1nnc(-c3c(F)cccc3F)cc12 [Compound 12, (5S,8R)-3-(2,6-difluorophenyl)-9,9-dimethyl-8-(pyridin-2-yloxy)-5,6,7,8-tetrahydro-5,8-methanocinnoline] | 42.5 nM
COC(=O)N1CCO[C@H]([C@@]23CC[C@@H](c4cc(-c5c(F)cccc5F)nnc42)C3(C)C)C1 [Compound 85, (R)-methyl 2-((5R,8R)-3-(2,6-difluorophenyl)-9,9-dimethyl-5,6,7,8-tetrahydro-5,8-methanocinnolin-8-yl)morpholine-4-carboxylate] | 69.8 nM
CC1(C)[C@H]2CC[C@]1(c1ccn3ccnc3n1)c1nnc(-c3c(F)cccc3F)cc12 [Compound 106] | 102 nM
CC[C@@H](O[C@@]12CC[C@@H](c3cc(-c4c(F)cccc4F)nnc31)C2(C)C)C(=O)NC[C@@H](O)CO [Compound 54, (R)-2-(((5S,8R)-3-(2,6-difluorophenyl)-9,9-dimethyl-5,6,7,8-tetrahydro-5,8-methanocinnolin-8-yl)oxy)-N-((R)-2,3-dihydroxypropyl)butanamide] | 75.4 nM
CC1(C)[C@H]2CC[C@]1(Oc1cccnn1)c1nnc(-c3c(F)cccc3F)cc12 [Compound 16, (5S,8R)-3-(2,6-difluorophenyl)-9,9-dimethyl-8-(pyridazin-3-yloxy)-5,6,7,8-tetrahydro-5,8-methanocinnoline] | 254 nM
Cc1coc(N2CCO[C@@H]([C@@]34CC[C@@H](c5cc(-c6c(F)cccc6F)nnc53)C4(C)C)C2)n1 [Compound 145, 2-[5-(2,6-difluorophenyl)-11,11-dimethyl-3,4-diazatricyclo[6.2.1.02,7]undeca-2,4,6-trien-1-yl]-4-(4-methyloxazol-2-yl)morpholine] | 18 nM
Cc1noc(N2CCO[C@@H]([C@@]34CC[C@@H](c5cc(-c6c(F)cccc6F)nnc53)C4(C)C)C2)n1 [Compound 91, (S)-2-((5R,8R)-3-(2,6-difluorophenyl)-9,9-dimethyl-5,6,7,8-tetrahydro-5,8-methanocinnolin-8-yl)-4-(3-methyl-1,2,4-oxadiazol-5-yl)morpholine] | 101 nM

Continued, values first:

IC50 | Structure (SMILES)
20 nM | CC1(C)[C@H]2CC[C@]1([C@H]1CCCN(c3cc[nH]c(=O)c3)C1)c1nnc(-c3c(F)cccc3F)cc12 [Compound 172, 4-[3-[5-(2,6-difluorophenyl)-11,11-dimethyl-3,4-diazatricyclo[6.2.1.02,7]undeca-2,4,6-trien-1-yl]-1-piperidyl]-1H-pyridin-2-one]
215 nM | CC1(C)[C@H]2CC[C@]1([C@H]1CCC(=O)NC1)c1nnc(-c3c(F)cccc3F)cc12 [Compound 92, (R)-5-((5R,8R)-3-(2,6-difluorophenyl)-9,9-dimethyl-5,6,7,8-tetrahydro-5,8-methanocinnolin-8-yl)piperidin-2-one]
720 nM | CC1(C)[C@H]2CC[C@]1([C@H]1CN(C(=O)c3ccc(=O)[nH]n3)CCO1)c1nnc(-c3c(F)cccc3F)cc12 (stereo in doubt) [Compound 123, 3-[2-[5-(2,6-difluorophenyl)-11,11-dimethyl-3,4-diazatricyclo[6.2.1.02,7]undeca-2,4,6-trien-1-yl]morpholine-4-carbonyl]-1H-pyridazin-6-one]
40 nM | CC1(C)[C@H]2CC[C@]1([C@H]1CCCN(c3cccnn3)C1)c1nnc(-c3c(F)cccc3F)cc12 [Compound 169, 5-(2,6-difluorophenyl)-11,11-dimethyl-1-(1-pyridazin-3-yl-3-piperidyl)-3,4-diazatricyclo[6.2.1.02,7]undeca-2,4,6-triene]
11 nM | CC1(C)[C@H]2CC[C@]1([C@H]1CCCN(C(=O)c3c[nH]c(=O)cn3)C1)c1nnc(-c3c(F)cccc3F)cc12 [Compound 121, 5-[3-[5-(2,6-difluorophenyl)-11,11-dimethyl-3,4-diazatricyclo[6.2.1.02,7]undeca-2,4,6-trien-1-yl]piperidine-1-carbonyl]-1H-pyrazin-2-one]
237 nM | CC1(C)[C@H]2CC[C@]1([C@@H]1CN(C(=O)c3ccc(=O)[nH]n3)CCO1)c1nnc(-c3c(F)cccc3F)cc12 [Compound 89, 6-((R)-2-((5R,8R)-3-(2,6-difluorophenyl)-9,9-dimethyl-5,6,7,8-tetrahydro-5,8-methanocinnolin-8-yl)morpholine-4-carbonyl)pyridazin-3(2H)-one]
74 nM | CC1(C)[C@H]2CC[C@]1([C@H]1CCCN(C(=O)c3ccc(=O)[nH]n3)C1)c1nnc(-c3c(F)cccc3F)cc12 [Compound 125, 3-[3-[5-(2,6-difluorophenyl)-11,11-dimethyl-3,4-diazatricyclo[6.2.1.02,7]undeca-2,4,6-trien-1-yl]piperidine-1-carbonyl]-1H-pyridazin-6-one]
4.5 nM | CC1(C)C2CCC1(C1CCCN(C(=O)c3ncco3)C1)c1nnc(-c3c(F)cccc3F)cc12 (stereo not drawn) [Compound 159, [3-[5-(2,6-difluorophenyl)-11,11-dimethyl-3,4-diazatricyclo[6.2.1.02,7]undeca-2,4,6-trien-1-yl]-1-piperidyl]-oxazol-2-yl-methanone]
6.9 nM | COC(=O)N1CCC[C@H]([C@@]23CC[C@@H](c4cc(-c5c(F)cccc5F)nnc42)C3(C)C)C1 [Compound 99, (R)-methyl 3-((5R,8R)-3-(2,6-difluorophenyl)-9,9-dimethyl-5,6,7,8-tetrahydro-5,8-methanocinnolin-8-yl)piperidine-1-carboxylate]
140 nM | CC1(C)[C@H]2CC[C@]1([C@H]1CN(C(=O)c3ccc(Cl)nn3)CCO1)c1nnc(-c3c(F)cccc3F)cc12 [Compound 124, (6-chloropyridazin-3-yl)-[2-[5-(2,6-difluorophenyl)-11,11-dimethyl-3,4-diazatricyclo[6.2.1.02,7]undeca-2,4,6-trien-1-yl]morpholin-4-yl]methanone]
370 nM | CC1(C)[C@H]2CC[C@]1([C@H]1CCCN(C(=O)NC3CC(O)C3)C1)c1nnc(-c3c(F)cccc3F)cc12 (stereo in doubt) [Compound 148, 3-[5-(2,6-difluorophenyl)-11,11-dimethyl-3,4-diazatricyclo[6.2.1.02,7]undeca-2,4,6-trien-1-yl]-N-(3-hydroxycyclobutyl)piperidine-1-carboxamide]
